Results on 17 compounds are retold here after patent publication US20240116988A1, “ANTI-ROR1 MACROCYCLIC PEPTIDES AND COMPOSITIONS” (BRISTOL-MYERS SQUIBB COMPANY, priority 2022, published 2024).

Positions of bridges follow the written chain, without caps; N, C: chain ends. Non-standard residues stand in square brackets, D forms with d. Residues, ends and D or L forms follow the SMILES beside them. ξ: configuration not given here. NMeF = CN[C@@H](Cc1ccccc1)C(=O)O; Ile(3ξ) = CCC(C)[C@H](N)C(=O)O

T1 sequence (Q01973 30-937): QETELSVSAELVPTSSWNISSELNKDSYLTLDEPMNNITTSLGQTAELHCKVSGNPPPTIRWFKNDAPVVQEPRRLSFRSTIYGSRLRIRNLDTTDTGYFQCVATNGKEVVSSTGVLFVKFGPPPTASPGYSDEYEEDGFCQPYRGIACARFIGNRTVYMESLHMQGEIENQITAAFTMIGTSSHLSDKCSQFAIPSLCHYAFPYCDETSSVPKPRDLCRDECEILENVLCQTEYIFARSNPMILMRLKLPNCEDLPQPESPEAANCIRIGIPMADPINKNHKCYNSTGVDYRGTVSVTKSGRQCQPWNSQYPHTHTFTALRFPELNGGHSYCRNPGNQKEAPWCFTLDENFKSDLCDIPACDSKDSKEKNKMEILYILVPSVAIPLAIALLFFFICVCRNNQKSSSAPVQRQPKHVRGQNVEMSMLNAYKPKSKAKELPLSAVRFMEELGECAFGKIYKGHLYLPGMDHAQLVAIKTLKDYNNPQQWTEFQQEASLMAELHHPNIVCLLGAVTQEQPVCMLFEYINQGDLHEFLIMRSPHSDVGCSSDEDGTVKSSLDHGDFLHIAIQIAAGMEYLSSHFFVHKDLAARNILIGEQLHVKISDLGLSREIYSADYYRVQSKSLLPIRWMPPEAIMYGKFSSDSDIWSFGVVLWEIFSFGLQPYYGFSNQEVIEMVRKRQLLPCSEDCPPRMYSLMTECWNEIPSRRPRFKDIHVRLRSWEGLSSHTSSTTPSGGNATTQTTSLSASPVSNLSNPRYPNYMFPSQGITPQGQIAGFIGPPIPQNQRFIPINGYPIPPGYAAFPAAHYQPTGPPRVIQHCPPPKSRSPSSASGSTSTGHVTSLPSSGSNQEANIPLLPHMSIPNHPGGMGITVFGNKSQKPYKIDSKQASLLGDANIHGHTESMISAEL

This experiment concerns the target T1, human ROR1 (Homo sapiens, UniProt Q01973).
T1 construct: host or cells: HEK 293T cells, Tet-on system induced with doxycycline
Put plainly: ROR1 high content cell-based binding assay. To be noted: read-out: ROR1 Binding 293T Human HC Cell Based Assay IC50. The method, then: ROR1 high content cell-based binding assay: Human embryonic kidney 293T cells (293T) expressing human ROR1 with Tet-on system by doxycycline were used (Arctic-488134) for the assessment of inhibition of the binding of fluorescently-labeled competing peptide (“Probe”) that specifically binds to human ROR1. […] Cryopreserved vials were thawed in a 37° C. water bath. Cells were washed in assay culture media [DMEM (Life Technologies Inc. Cat. […] Cat. No. 15140-122) and […] dox] and diluted 1.0×10^5 cells/mL. Cells were seeded into PDL-coated 384 well plates (BD Falcon Cat. No. 356663) at 2,000 cells/20 μL. Plates were allowed to incubate for 10 minutes at room temperature and then transferred to a 37° C./5% CO2 incubator for overnight incubation. The next day, 125 nL of the test compound was added using an ECHO followed by the addition of 5 μL/well of 5-FAM-labeled probe to cells at a final concentration of 30 nM. Sample were incubated for 1 hour at 37° C. for 1 hour, followed by 3 washes in […] of dPBS. Cells were fixed by adding 8% (w/v) formaldehyde (Sigma Cat. No. 252549), 20 μg/mL Hoechst (Thermo Scientific Cat. No. 62249) in PBS for 20 minutes at room temperature. The plates were washed 3 more times in dPBS and 15 μl of PBS was left in the wells following the last wash. The plates were sealed, and data was using obtained using a CellInsight NXT High Content Screening Platform IC903000 (Thermo Scientific).
As to `CC(C)C[C@@H]1NC(=O)[C@H](Cc2ccc(O)cc2)NC(=O)[C@H](Cc2ccccc2)NC(=O)CSC[C@@H](C(N)=O)NC(=O)[C@H](CC(C)C)NC(=O)[C@H](Cc2ccccc2)N(C)C(=O)[C@H](Cc2ccc(O)cc2)NC(=O)[C@H](Cc2c[nH]c3ccccc23)NC(=O)CNC(=O)[C@H](CO)NC(=O)[C@H](Cc2ccc(O)cc2)NC(=O)[C@H](C(C)C)NC1=O` [Example 1036] ({CH2CO}-FYLVYSGWY[NMeF]LC-NH2; thioether N-12), the IC50 is 7 nM. Regarding `CC(C)C[C@@H]1NC(=O)[C@H](Cc2ccc(O)cc2)NC(=O)[C@H](C)NC(=O)CSC[C@@H](C(=O)NCC(N)=O)NC(=O)[C@H](CC(C)C)NC(=O)[C@H](Cc2ccccc2)N(C)C(=O)[C@H](Cc2ccc(O)cc2)NC(=O)[C@H](Cc2c[nH]c3ccccc23)NC(=O)CNC(=O)[C@H](CO)NC(=O)[C@H](Cc2ccc(O)cc2)NC(=O)[C@H](C(C)C)NC1=O` [Example 1037] ({CH2CO}-AYLVYSGWY[NMeF]LCG-NH2; thioether N-12), the IC50 worked out at 251 nM. As for `CC(C)C[C@@H]1NC(=O)[C@H](C)NC(=O)[C@H](Cc2ccccc2)NC(=O)CSC[C@@H](C(=O)NCC(N)=O)NC(=O)[C@H](CC(C)C)NC(=O)[C@H](Cc2ccccc2)N(C)C(=O)[C@H](Cc2ccc(O)cc2)NC(=O)[C@H](Cc2c[nH]c3ccccc23)NC(=O)CNC(=O)[C@H](CO)NC(=O)[C@H](Cc2ccc(O)cc2)NC(=O)[C@H](C(C)C)NC1=O` [Example 1038] ({CH2CO}-FALVYSGWY[NMeF]LCG-NH2; thioether N-12), the IC50 was 23 nM. The result for `CC(C)C[C@@H]1NC(=O)[C@H](Cc2ccc(O)cc2)NC(=O)[C@H](Cc2ccccc2)NC(=O)CSC[C@@H](C(=O)NCC(N)=O)NC(=O)[C@H](CC(C)C)NC(=O)[C@H](Cc2ccccc2)N(C)C(=O)[C@H](C)NC(=O)[C@H](Cc2c[nH]c3ccccc23)NC(=O)CNC(=O)[C@H](CO)NC(=O)[C@H](Cc2ccc(O)cc2)NC(=O)[C@H](C(C)C)NC1=O` [Example 1039] ({CH2CO}-FYLVYSGWA[NMeF]LCG-NH2; thioether N-12) reads 681 nM; that for `CC(C)C[C@@H]1NC(=O)[C@H](Cc2ccccc2)N(C)C(=O)[C@H](Cc2ccc(O)cc2)NC(=O)[C@H](Cc2c[nH]c3ccccc23)NC(=O)CNC(=O)[C@H](CO)NC(=O)[C@H](Cc2ccc(O)cc2)NC(=O)[C@H](C(C)C)NC(=O)[C@H](C)NC(=O)[C@H](Cc2ccc(O)cc2)NC(=O)[C@H](Cc2ccccc2)NC(=O)CSC[C@@H](C(=O)NCC(N)=O)NC1=O` [Example 1040] ({CH2CO}-FYAVYSGWY[NMeF]LCG-NH2; thioether N-12), 17 nM; that for `CC(C)C[C@@H]1NC(=O)[C@H](Cc2ccc(O)cc2)NC(=O)[C@H](Cc2ccccc2)NC(=O)CSC[C@@H](C(=O)NCC(N)=O)NC(=O)[C@H](CC(C)C)NC(=O)[C@H](Cc2ccccc2)N(C)C(=O)[C@H](Cc2ccc(O)cc2)NC(=O)[C@H](Cc2c[nH]c3ccccc23)NC(=O)CNC(=O)[C@H](CO)NC(=O)[C@H](Cc2ccc(O)cc2)NC(=O)[C@H](C)NC1=O` [Example 1041] ({CH2CO}-FYLAYSGWY[NMeF]LCG-NH2; thioether N-12), 12 nM. As to `CC(C)C[C@@H]1NC(=O)[C@H](Cc2ccc(O)cc2)NC(=O)[C@H](Cc2ccccc2)NC(=O)CSC[C@@H](C(=O)NCC(N)=O)NC(=O)[C@H](C)NC(=O)[C@H](Cc2ccccc2)N(C)C(=O)[C@H](Cc2ccc(O)cc2)NC(=O)[C@H](Cc2c[nH]c3ccccc23)NC(=O)CNC(=O)[C@H](CO)NC(=O)[C@H](Cc2ccc(O)cc2)NC(=O)[C@H](C(C)C)NC1=O` [Example 1042] ({CH2CO}-FYLVYSGWY[NMeF]ACG-NH2; thioether N-12), the IC50 amounted to 31 nM. Consider `CC(C)C[C@@H]1NC(=O)[C@H](Cc2ccc(O)cc2)NC(=O)[C@H](Cc2ccccc2)NC(=O)CSC[C@@H](C(=O)NCC(N)=O)NC(=O)[C@H](CC(C)C)NC(=O)[C@H](Cc2ccccc2)N(C)C(=O)[C@H](Cc2ccc(O)cc2)NC(=O)[C@H](Cc2c[nH]c3ccccc23)NC(=O)CNC(=O)[C@H](Cc2ccccc2)NC(=O)[C@H](Cc2ccc(O)cc2)NC(=O)[C@H](C(C)C)NC1=O` [Example 1043] ({CH2CO}-FYLVYFGWY[NMeF]LCG-NH2; thioether N-12), for which the IC50 came to 38 nM. With `CC(C)C[C@@H]1NC(=O)[C@H](Cc2ccc(O)cc2)NC(=O)[C@H](C(C)C)NC(=O)[C@H](CC(C)C)NC(=O)[C@H](Cc2ccc(O)cc2)NC(=O)[C@H](Cc2ccccc2)NC(=O)CSC[C@@H](C(=O)NCC(N)=O)NC(=O)[C@H](CC(C)C)NC(=O)[C@H](Cc2ccccc2)N(C)C(=O)[C@H](Cc2ccc(O)cc2)NC(=O)[C@H](Cc2c[nH]c3ccccc23)NC(=O)CNC1=O` [Example 1044] ({CH2CO}-FYLVYLGWY[NMeF]LCG-NH2; thioether N-12) the figure was 38 nM; with `CC(C)C[C@@H]1NC(=O)[C@H](Cc2ccc(O)cc2)NC(=O)[C@H](Cc2ccccc2)NC(=O)CSC[C@@H](C(=O)NCC(N)=O)NC(=O)[C@H](CC(C)C)NC(=O)[C@H](Cc2ccccc2)N(C)C(=O)[C@H](Cc2ccc(O)cc2)NC(=O)[C@H](Cc2c[nH]c3ccccc23)NC(=O)CNC(=O)[C@H](Cc2ccc(O)cc2)NC(=O)[C@H](Cc2ccc(O)cc2)NC(=O)[C@H](C(C)C)NC1=O` [Example 1045] ({CH2CO}-FYLVYYGWY[NMeF]LCG-NH2; thioether N-12), 9 nM.

Regarding `CC(C)C[C@@H]1NC(=O)[C@H](Cc2ccccc2)N(C)C(=O)[C@H](Cc2ccc(O)cc2)NC(=O)[C@H](Cc2c[nH]c3ccccc23)NC(=O)CNC(=O)[C@H](CO)NC(=O)[C@H](Cc2ccc(O)cc2)NC(=O)[C@H](C(C)C)NC(=O)[C@H](CCCNC(=N)N)NC(=O)[C@H](Cc2ccc(O)cc2)NC(=O)[C@H](Cc2ccccc2)NC(=O)CSC[C@@H](C(=O)NCC(N)=O)NC1=O` [Example 1046] ({CH2CO}-FYRVYSGWY[NMeF]LCG-NH2; thioether N-12), the IC50 came to 6 nM. With `CC(C)C[C@@H]1NC(=O)[C@H](Cc2ccc(O)cc2)NC(=O)[C@H](Cc2ccccc2)NC(=O)CSC[C@@H](C(=O)NCC(N)=O)NC(=O)[C@H](CC(C)C)NC(=O)[C@H](Cc2ccccc2)N(C)C(=O)[C@H](Cc2ccc(O)cc2)NC(=O)[C@H](Cc2c[nH]c3ccccc23)NC(=O)[C@H](CCCNC(=N)N)NC(=O)[C@H](CO)NC(=O)[C@H](Cc2ccc(O)cc2)NC(=O)[C@H](C(C)C)NC1=O` [Example 1047] ({CH2CO}-FYLVYSRWY[NMeF]LCG-NH2; thioether N-12) the figure was 243 nM; with `CC(C)C[C@@H]1NC(=O)[C@H](Cc2ccc(O)cc2)NC(=O)[C@H](Cc2ccccc2)NC(=O)CSC[C@@H](C(=O)NCC(N)=O)NC(=O)[C@H](CC(C)C)NC(=O)[C@H](Cc2ccccc2)N(C)C(=O)[C@H](Cc2ccc(O)cc2)NC(=O)[C@H](Cc2c[nH]c3ccccc23)NC(=O)CNC(=O)[C@@H](C)NC(=O)[C@H](Cc2ccc(O)cc2)NC(=O)[C@H](C(C)C)NC1=O` [Example 1048] ({CH2CO}-FYLVY[dA]GWY[NMeF]LCG-NH2; thioether N-12), 666 nM; with `CC[C@H](C)[C@@H]1NC(=O)[C@H](Cc2ccccc2)NC(=O)CSC[C@@H](C(N)=O)NC(=O)[C@H](C)NC(=O)[C@H](Cc2ccc(O)cc2)NC(=O)[C@H](Cc2ccc(O)cc2)NC(=O)[C@H](Cc2c[nH]c3ccccc23)NC(=O)CNC(=O)[C@H](Cc2ccc(O)cc2)NC(=O)[C@H](CCCNC(=N)N)NC(=O)[C@H](C(C)C)NC(=O)[C@H](Cc2c[nH]c3ccccc23)NC1=O` [Example 1049] ({CH2CO}-FIWVRYGWYYAC-NH2; thioether N-12), 19 nM. On to `CCC(C)[C@@H]1NC(=O)[C@H](Cc2c[nH]c3ccccc23)NC(=O)[C@H](Cc2ccccc2)NC(=O)[C@H](Cc2ccc(O)cc2)NC(=O)[C@@H](Cc2ccccc2)NC(=O)CSC[C@@H](C(N)=O)NC(=O)[C@H](C)NC(=O)[C@H](C(C)CC)NC(=O)[C@H](C(C)C)NC(=O)[C@H](Cc2c[nH]c3ccccc23)NC(=O)[C@H](CCCNC(=N)N)NC(=O)CNC1=O` (some centres unmarked) [Example 1050] ({CH2CO}-[dF]YFW[Ile(3ξ)]GRWV[Ile(3ξ)]AC-NH2; thioether N-12), for which the IC50 stood at 15 nM. With `CC(C)C[C@@H]1NC(=O)[C@H](CCCNC(=N)N)NC(=O)[C@H](Cc2ccccc2)NC(=O)CSC[C@@H](C(=O)NCC(N)=O)NC(=O)[C@H](CC(C)C)NC(=O)[C@H](Cc2ccccc2)N(C)C(=O)[C@H](Cc2ccc(O)cc2)NC(=O)[C@H](Cc2c[nH]c3ccccc23)NC(=O)CNC(=O)[C@H](CO)NC(=O)[C@H](Cc2ccc(O)cc2)NC(=O)[C@H](C(C)C)NC1=O` [Example 1051] ({CH2CO}-FRLVYSGWY[NMeF]LCG-NH2; thioether N-12), the IC50 is 172 nM. For the compound `CC(C)C[C@@H]1NC(=O)[C@H](Cc2ccccc2)N(C)C(=O)[C@H](Cc2ccc(O)cc2)NC(=O)[C@H](Cc2c[nH]c3ccccc23)NC(=O)CNC(=O)[C@H](CO)NC(=O)[C@H](Cc2ccc(O)cc2)NC(=O)[C@H](C(C)C)NC(=O)[C@H](CCC(=O)O)NC(=O)[C@H](Cc2ccc(O)cc2)NC(=O)[C@H](Cc2ccccc2)NC(=O)CSC[C@@H](C(=O)NCC(N)=O)NC1=O` [Example 1052] ({CH2CO}-FYEVYSGWY[NMeF]LCG-NH2; thioether N-12), the IC50 was found to be 367 nM.
